Measured values published in ChEMBL document CHEMBL1201862, “PubChem BioAssay data set” (2004).
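In this assay, cells in 96-well plates receive the compound at five concentrations for 48 hours. Endpoints are linearly interpolated between the surrounding concentrations. GI50: concentration for 50% inhibition of growth.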 Calls of active or inactive are those of the source. No stated cut-off is given here; in the data, active = GI50 up to about 1.1 µM and inactive = higher.

Experiments:
Experiment in all cases: NCI-60 cell line screen, 48 h
UO-31 = system: UO-31
SK-MEL-5 = system: SK-MEL-5
NCI-H23 = system: NCI-H23
SF-295 = system: SF-295
SNB-75 = system: SNB-75
U-251 = system: U-251
SW-620 = system: SW-620
M14 = system: M14
UACC-62 = system: UACC-62
IGROV-1 = system: IGROV-1
EKVX = system: EKVX
DU-145 = system: DU-145
COLO 205 = system: COLO 205
SR = system: SR
MDA-MB-231 = system: MDA-MB-231
HL-60 = system: HL-60
TK-10 = system: TK-10
UACC-257 = system: UACC-257
Hs-578T = system: Hs-578T
HCT-116 = system: HCT-116

SMILES	GI50 (UO-31)	GI50 (SK-MEL-5)	GI50 (NCI-H23)	GI50 (SF-295)	GI50 (SNB-75)	GI50 (U-251)	GI50 (SW-620)	GI50 (M14)	GI50 (UACC-62)	GI50 (IGROV-1)	GI50 (EKVX)	GI50 (DU-145)	GI50 (COLO 205)	GI50 (SR)	GI50 (MDA-MB-231)	GI50 (HL-60)	GI50 (TK-10)	GI50 (UACC-257)	GI50 (Hs-578T)	GI50 (HCT-116)
CCOC(=O)CC1CCN(C(=O)c2ccccc2)C2Cc3c([nH]c4ccccc34)C12C[N+](=O)[O-] (stereo not given)	48.3 µM (inactive)	57.8 µM (inactive)	73.6 µM (inactive)	40.5 µM (inactive)	56.6 µM (inactive)	78.3 µM (inactive)	> 100 µM (inactive)	63.2 µM (inactive)	58.7 µM (inactive)	58.7 µM (inactive)	> 100 µM (inactive)	> 100 µM (inactive)	61 µM (inactive)	39.8 µM (inactive)	> 100 µM (inactive)	38.7 µM (inactive)	> 100 µM (inactive)	> 100 µM (inactive)	> 100 µM (inactive)	–
O=C(O)CCCCCNC(=O)CCC(CN(CC(=O)OCc1ccccc1)CC(=O)OCc1ccccc1)N(CC(=O)OCc1ccccc1)CC(=O)OCc1ccccc1 (stereo not given)	15.8 µM (inactive)	17.3 µM (inactive)	18.4 µM (inactive)	17.3 µM (inactive)	–	22 µM (inactive)	22.1 µM (inactive)	17.5 µM (inactive)	16.7 µM (inactive)	17.6 µM (inactive)	22 µM (inactive)	19.5 µM (inactive)	16.7 µM (inactive)	20.9 µM (inactive)	19.5 µM (inactive)	15 µM (inactive)	16.3 µM (inactive)	18.8 µM (inactive)	20.5 µM (inactive)	17.1 µM (inactive)
COc1cc2cc(C(=O)Nc3cc4n(n3)-c3ccccc3C4)[nH]c2c(OC)c1OC	1.97 µM (inactive)	1.41 µM (inactive)	2.75 µM (inactive)	3.4 µM (inactive)	5.83 µM (inactive)	8.04 µM (inactive)	7.08 µM (inactive)	2 µM (inactive)	–	2.73 µM (inactive)	2.17 µM (inactive)	6.73 µM (inactive)	3.06 µM (inactive)	2.26 µM (inactive)	8.04 µM (inactive)	2.25 µM (inactive)	1.85 µM (inactive)	2.9 µM (inactive)	2.98 µM (inactive)	2.73 µM (inactive)
O=S1(=O)N=C(SCc2ccccc2)N(c2ccccc2)c2ccncc21	3.83 µM (inactive)	28.4 µM (inactive)	29.6 µM (inactive)	34 µM (inactive)	24.7 µM (inactive)	39.2 µM (inactive)	56 µM (inactive)	36.3 µM (inactive)	44.4 µM (inactive)	–	24.4 µM (inactive)	30.5 µM (inactive)	19.7 µM (inactive)	21.2 µM (inactive)	68.2 µM (inactive)	29.6 µM (inactive)	35.7 µM (inactive)	31.3 µM (inactive)	31.7 µM (inactive)	35.3 µM (inactive)
Nc1ccccc1CCCC(=O)O	> 100 µM (inactive)	> 100 µM (inactive)	> 100 µM (inactive)	> 100 µM (inactive)	> 100 µM (inactive)	> 100 µM (inactive)	> 100 µM (inactive)	> 100 µM (inactive)	> 100 µM (inactive)	> 100 µM (inactive)	–	> 100 µM (inactive)	> 100 µM (inactive)	> 100 µM (inactive)	> 100 µM (inactive)	45.4 µM (inactive)	> 100 µM (inactive)	> 100 µM (inactive)	> 100 µM (inactive)	> 100 µM (inactive)
Cc1cc(-c2nc3cc(F)c(F)cc3s2)ccc1N	> 59.4 µM (inactive)	64 µM (inactive)	> 70.6 µM (inactive)	> 48.2 µM (inactive)	51.9 µM (inactive)	> 45.4 µM (inactive)	> 60.5 µM (inactive)	> 55.2 µM (inactive)	> 100 µM (inactive)	–	> 79.8 µM (inactive)	> 67.6 µM (inactive)	23.7 µM (inactive)	> 100 µM (inactive)	> 100 µM (inactive)	> 41.6 µM (inactive)	0.0312 µM (active)	> 73.1 µM (inactive)	61.1 µM (inactive)	> 55.6 µM (inactive)
CSC(SC)=C1CC(=O)Nc2ccccc2C1=O	55.1 µM (inactive)	51.5 µM (inactive)	29.9 µM (inactive)	> 100 µM (inactive)	–	40.3 µM (inactive)	–	80.2 µM (inactive)	24.6 µM (inactive)	35.9 µM (inactive)	> 100 µM (inactive)	91.6 µM (inactive)	58.2 µM (inactive)	27.5 µM (inactive)	> 100 µM (inactive)	27.7 µM (inactive)	37 µM (inactive)	23.6 µM (inactive)	63.7 µM (inactive)	> 100 µM (inactive)
COC(=O)CN(CC(=O)NCCCBr)C1CCCCC1N(CC(=O)OC)CC(=O)OC (stereo not given)	84.7 µM (inactive)	> 100 µM (inactive)	> 100 µM (inactive)	> 100 µM (inactive)	19.1 µM (inactive)	> 100 µM (inactive)	> 100 µM (inactive)	–	> 100 µM (inactive)	> 100 µM (inactive)	> 100 µM (inactive)	> 100 µM (inactive)	> 100 µM (inactive)	> 100 µM (inactive)	> 100 µM (inactive)	> 100 µM (inactive)	> 100 µM (inactive)	> 100 µM (inactive)	53.7 µM (inactive)	> 100 µM (inactive)
C/C=C(/C)C(=O)O[C@@H]1c2c(C)coc2C[C@H]2CC[C@H](O)[C@H](C)[C@]21C	68.2 µM (inactive)	35.6 µM (inactive)	34.2 µM (inactive)	> 100 µM (inactive)	–	> 100 µM (inactive)	24 µM (inactive)	54.1 µM (inactive)	43.8 µM (inactive)	43.3 µM (inactive)	> 100 µM (inactive)	> 100 µM (inactive)	> 100 µM (inactive)	49.9 µM (inactive)	71.6 µM (inactive)	34.5 µM (inactive)	64.6 µM (inactive)	34.2 µM (inactive)	64.7 µM (inactive)	31.6 µM (inactive)
CN(C)c1ccc(/C=N/n2c(-c3ccccc3)nc3ccccc3c2=O)cc1	–	33.3 µM (inactive)	28.3 µM (inactive)	> 100 µM (inactive)	24.4 µM (inactive)	63.4 µM (inactive)	> 100 µM (inactive)	79.6 µM (inactive)	58.9 µM (inactive)	> 100 µM (inactive)	> 100 µM (inactive)	> 100 µM (inactive)	48.5 µM (inactive)	14.1 µM (inactive)	30 µM (inactive)	40 µM (inactive)	81.7 µM (inactive)	> 100 µM (inactive)	20 µM (inactive)	50.6 µM (inactive)
O=C1CSSCC(=O)Nc2ccccc2N1	> 100 µM (inactive)	> 100 µM (inactive)	> 100 µM (inactive)	> 100 µM (inactive)	–	> 100 µM (inactive)	> 100 µM (inactive)	> 100 µM (inactive)	> 100 µM (inactive)	> 100 µM (inactive)	> 100 µM (inactive)	> 100 µM (inactive)	> 100 µM (inactive)	> 100 µM (inactive)	> 100 µM (inactive)	> 100 µM (inactive)	> 100 µM (inactive)	> 100 µM (inactive)	> 100 µM (inactive)	> 100 µM (inactive)
N=C(N)N/N=C(\c1ccc(Cl)cc1)C1CC1	24.6 µM (inactive)	15.6 µM (inactive)	27.1 µM (inactive)	21.3 µM (inactive)	22.2 µM (inactive)	14.2 µM (inactive)	18.4 µM (inactive)	15.4 µM (inactive)	15.9 µM (inactive)	16.2 µM (inactive)	23.9 µM (inactive)	22.6 µM (inactive)	17.2 µM (inactive)	11.4 µM (inactive)	18.5 µM (inactive)	–	16.3 µM (inactive)	14.5 µM (inactive)	25 µM (inactive)	16 µM (inactive)
CC#CC#C/C=C1/O[C@]2(CCC(OC(=O)CC(C)C)CO2)[C@@H]2O[C@H]12 (stereo not given in full)	18.9 µM (inactive)	–	24.5 µM (inactive)	–	78.5 µM (inactive)	21.7 µM (inactive)	19.2 µM (inactive)	21.9 µM (inactive)	23.3 µM (inactive)	91.4 µM (inactive)	28.9 µM (inactive)	42.5 µM (inactive)	–	28.1 µM (inactive)	24 µM (inactive)	19.7 µM (inactive)	25.7 µM (inactive)	30.3 µM (inactive)	52.5 µM (inactive)	15.4 µM (inactive)
COc1ccc(C2=CC(c3ccccc3)n3nnnc3N2)cc1 (stereo not given)	> 100 µM (inactive)	> 100 µM (inactive)	> 100 µM (inactive)	52.2 µM (inactive)	–	56 µM (inactive)	> 100 µM (inactive)	> 100 µM (inactive)	> 100 µM (inactive)	> 100 µM (inactive)	–	> 100 µM (inactive)	> 100 µM (inactive)	> 100 µM (inactive)	> 100 µM (inactive)	> 100 µM (inactive)	–	> 100 µM (inactive)	76.9 µM (inactive)	> 100 µM (inactive)
Cc1ccc(C(=O)CC(Cl)=C(Cl)Cl)cc1	> 100 µM (inactive)	> 100 µM (inactive)	> 100 µM (inactive)	25.6 µM (inactive)	> 100 µM (inactive)	> 100 µM (inactive)	> 100 µM (inactive)	> 100 µM (inactive)	> 100 µM (inactive)	> 100 µM (inactive)	–	> 100 µM (inactive)	> 100 µM (inactive)	25.7 µM (inactive)	98.2 µM (inactive)	54 µM (inactive)	> 100 µM (inactive)	65.9 µM (inactive)	> 100 µM (inactive)	61.9 µM (inactive)
